Reference: ChEMBL document CHEMBL1201862, “PubChem BioAssay data set” (2004)
Activity calls are given as the source filed them.

Legend:
Estrogen receptor beta = Estrogen receptor beta (Homo sapiens, UniProt Q92731); experiment: ERβ–SRC-3 coactivator interaction inhibitors, confirmation, orthogonal assay, biochemical, ELISA, streptavidin-HRP readout (AID 1060)
[1] = target: Induced myeloid leukemia cell differentiation protein Mcl-1 (Homo sapiens, UniProt Q07820); format: functional
[2] = HEp-2 cell cytotoxicity, dose response, cytotoxicity control for RSV inhibitor project, HTS (AID 2410); format: functional; settings: human respiratory syncytial virus
[3] = target: 5-hydroxytryptamine receptor 1A (Homo sapiens, UniProt P08908); format: functional
Sequence of 5-hydroxytryptamine receptor 1A (P08908 whole entry, the tested form may be a part): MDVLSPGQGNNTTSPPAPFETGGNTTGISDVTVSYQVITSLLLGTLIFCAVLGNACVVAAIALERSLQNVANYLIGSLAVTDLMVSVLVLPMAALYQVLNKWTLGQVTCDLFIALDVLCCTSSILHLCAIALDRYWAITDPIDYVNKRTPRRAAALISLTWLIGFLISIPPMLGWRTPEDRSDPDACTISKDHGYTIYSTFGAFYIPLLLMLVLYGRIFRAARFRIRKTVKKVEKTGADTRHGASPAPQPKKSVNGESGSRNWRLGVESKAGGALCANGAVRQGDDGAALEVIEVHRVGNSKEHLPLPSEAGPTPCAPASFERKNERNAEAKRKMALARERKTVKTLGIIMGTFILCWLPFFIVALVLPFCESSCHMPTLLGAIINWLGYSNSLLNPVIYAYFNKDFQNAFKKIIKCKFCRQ

Estrogen receptor = target: T1, Estrogen receptor (Homo sapiens, UniProt P03372); experiment: potentiators of ERα–SRC-1 coactivator binding, dose response, biochemical, TR-FRET, ERα LBD (AID 737)
T1 sequence (P03372 whole entry): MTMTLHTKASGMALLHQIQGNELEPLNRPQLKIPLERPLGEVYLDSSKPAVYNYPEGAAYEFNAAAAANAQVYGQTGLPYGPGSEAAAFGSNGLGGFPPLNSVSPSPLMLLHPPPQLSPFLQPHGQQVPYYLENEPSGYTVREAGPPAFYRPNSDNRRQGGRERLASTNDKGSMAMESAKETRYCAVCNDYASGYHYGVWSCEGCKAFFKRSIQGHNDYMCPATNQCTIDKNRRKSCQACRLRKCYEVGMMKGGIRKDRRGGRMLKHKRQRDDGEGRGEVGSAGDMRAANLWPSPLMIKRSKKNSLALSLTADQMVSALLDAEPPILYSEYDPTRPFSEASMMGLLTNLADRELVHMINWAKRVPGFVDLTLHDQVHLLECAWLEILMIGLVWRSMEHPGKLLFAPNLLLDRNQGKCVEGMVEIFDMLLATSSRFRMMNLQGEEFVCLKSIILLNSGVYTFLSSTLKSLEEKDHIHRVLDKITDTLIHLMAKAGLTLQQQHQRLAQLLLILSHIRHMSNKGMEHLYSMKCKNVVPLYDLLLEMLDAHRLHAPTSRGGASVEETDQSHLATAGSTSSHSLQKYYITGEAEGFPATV

[4] = M. tuberculosis H37Rv growth inhibitors, H37Rv strain (AID 1626); format: functional
[5] = Vero cell cytotoxicity, dose response, cytotoxicity control for Vif-APOBEC3G degradation inhibitor project, Vero cells (AID 1117358); format: functional; settings: Human immunodeficiency virus 1, Vero
[6] = inhibitors of firefly luciferase expression or activity, dose response, H4 neuroglioma cells, luminescence (AID 1990); format: functional, cell-based
[7] = Luminescence Cell-Based Dose Response HTS to Identify Inhibitors of 5'UTR Stem-Loop Driven Prion Protein mRNA Translation in H4 Neuroglioblastoma Cells. [Related pubchem assays: 1827 (Project Summary), 1813 (Primary HTS)]; format: functional
[8] = inhibitors of SNCA 5'UTR-driven reporter translation, confirmation, H4 neuroglioma cells, luminescence (AID 1988); format: functional, cell-based
Prothrombin = Prothrombin (Homo sapiens, UniProt P00734); experiment: Thrombin 1536 HTS Dose Response Confirmation. [Related pubchem assays: 1046 (Thrombin 1536 HTS; hits were confirmed in this assay)]; format: functional
Coagulation factor XII = target: T2, Coagulation factor XII (Homo sapiens, UniProt P00748); format: functional;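 also: activated factor XIIa alpha cleaving a fluorogenic AMC peptide substrate; inhibitor potency from loss of enzyme activity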
T2 sequence (P00748 whole entry): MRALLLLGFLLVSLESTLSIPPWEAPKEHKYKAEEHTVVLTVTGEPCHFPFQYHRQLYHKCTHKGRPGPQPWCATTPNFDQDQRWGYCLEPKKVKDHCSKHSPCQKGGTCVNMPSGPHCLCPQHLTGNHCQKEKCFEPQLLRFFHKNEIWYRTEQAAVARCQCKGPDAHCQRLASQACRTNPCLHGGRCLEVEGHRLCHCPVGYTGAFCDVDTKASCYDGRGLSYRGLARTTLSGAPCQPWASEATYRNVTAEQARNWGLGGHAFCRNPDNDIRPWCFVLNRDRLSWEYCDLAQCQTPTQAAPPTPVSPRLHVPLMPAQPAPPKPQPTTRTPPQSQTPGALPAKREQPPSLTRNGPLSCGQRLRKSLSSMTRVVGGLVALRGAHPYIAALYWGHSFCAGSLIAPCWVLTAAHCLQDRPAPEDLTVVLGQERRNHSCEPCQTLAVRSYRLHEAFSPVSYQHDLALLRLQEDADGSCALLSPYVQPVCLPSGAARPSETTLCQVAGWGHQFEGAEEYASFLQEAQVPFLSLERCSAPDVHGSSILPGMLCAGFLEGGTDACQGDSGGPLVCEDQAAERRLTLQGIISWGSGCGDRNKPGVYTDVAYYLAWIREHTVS

Sequence of Induced myeloid leukemia cell differentiation protein Mcl-1 (Q07820 whole entry): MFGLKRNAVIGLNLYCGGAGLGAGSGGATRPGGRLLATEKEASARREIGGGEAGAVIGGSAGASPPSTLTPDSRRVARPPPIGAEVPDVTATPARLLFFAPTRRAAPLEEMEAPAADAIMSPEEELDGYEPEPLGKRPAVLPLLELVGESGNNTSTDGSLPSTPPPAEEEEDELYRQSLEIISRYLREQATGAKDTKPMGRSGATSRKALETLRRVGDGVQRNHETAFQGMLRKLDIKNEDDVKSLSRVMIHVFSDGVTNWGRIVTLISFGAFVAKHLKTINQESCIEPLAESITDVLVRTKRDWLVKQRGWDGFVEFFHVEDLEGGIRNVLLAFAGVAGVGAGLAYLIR
Sequence of Estrogen receptor beta (Q92731 whole entry): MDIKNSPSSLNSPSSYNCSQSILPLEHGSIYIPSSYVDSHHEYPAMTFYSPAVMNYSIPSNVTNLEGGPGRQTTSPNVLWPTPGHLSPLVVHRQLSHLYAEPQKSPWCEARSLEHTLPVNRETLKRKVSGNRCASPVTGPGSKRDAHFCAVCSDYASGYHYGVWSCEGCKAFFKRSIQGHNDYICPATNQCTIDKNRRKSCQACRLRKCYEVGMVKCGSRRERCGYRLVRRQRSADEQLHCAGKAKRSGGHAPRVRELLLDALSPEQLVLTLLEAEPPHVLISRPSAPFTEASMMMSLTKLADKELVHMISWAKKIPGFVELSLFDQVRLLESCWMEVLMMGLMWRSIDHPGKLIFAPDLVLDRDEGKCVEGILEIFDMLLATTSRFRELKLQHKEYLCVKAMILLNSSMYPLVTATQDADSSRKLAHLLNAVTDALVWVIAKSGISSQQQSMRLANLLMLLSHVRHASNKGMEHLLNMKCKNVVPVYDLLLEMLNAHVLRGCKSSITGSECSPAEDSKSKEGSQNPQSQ

In the case of `CC(C)Cn1c(N)c(C(=O)COC(=O)c2cc(-c3ccco3)nc3ccccc23)c(=O)n(C)c1=O`, the IC50 (Estrogen receptor beta) is reported as > 50 µM (not active) and the IC50 [1] is reported as 2.59 µM (active).
In the case of `COC(=O)C1=C(C)N(Cc2ccccc2)C(=O)N[C@H]1c1ccccc1`, the CC50 [2] is reported as 33.9 µM (active) and the IC50 (cells) is reported as 5.02 µM (active).
In the case of `CC(=O)Nc1ccc(S(=O)(=O)N(C)c2ccc(O)cc2)cc1`, the EC50 [3] is reported as > 50 µM (not active).
With `O=C(Cc1ccccc1)Nc1ccc2oc(-c3cccnc3)nc2c1` the EC50 (Estrogen receptor) was 21.2 µM (active).
With `NCCc1c[nH]c2ccc(F)cc12` the EC50 [3] was 2.22 µM (active).
For `Cc1cccc(Oc2ccc(N)cc2)c1`, the IC50 [4] was > 100 µM (active).
With `COc1cc(C(=O)NCC(c2ccco2)N2CCCC2)ccc1OCc1c(C)noc1C` (configuration not stated) the CC50 [5] was > 40 µM (active).
For `O=C(c1cc2nc(-c3ccccc3)cc(-c3ccccc3)n2n1)N1CCC2(CC1)OCCO2`, the CC50 [2] was 28.9 µM (active), the EC50 [6] was 24.2 µM (active) and the EC50 [7] was 12.9 µM (active). For the same compound, the EC50 [8] was 115 µM (active) and the IC50 (cells) was 3.6 µM (active).
With `C/C(=C\c1ccccc1)C(=O)n1nnc2ccccc21` the IC50 (Prothrombin) was 0.846 µM (active).
With `COc1cccc(NC(=S)Nc2ccc(Br)cc2Cl)c1` the IC50 (Prothrombin) was > 50 µM (not active) and the IC50 (Coagulation factor XII) was > 50 µM (inactive).
